Patent US20150265644A1, “THERAPEUTIC METHODS AND COMPOSITIONS FOR TREATING DIABETES UTILIZING DITERPENOID COMPOUNDS” (Orient Europharma Co., Ltd., priority 2014, published 2015)

How the values were obtained:
phospho-Akt (Ser^473) = assay: Western blot of liver, phospho-Akt; format: in vivo; conditions: mice with type 1 DM, 10 mgkg^−1 i.p. twice a day for 7 days
Method: (§1) After three days of acclimatization, the mice had free access to a standard rodent chow (normal mice), a standard rodent chow after single 250 mgkg^−1 streptozotocin (STZ) intraperitoneal injection (TIDM mice), and a fat-rich chow diet and fructose-sweetened water (T2DM mice) for 4 weeks. The induction of Type 1 DM was assessed and confirmed when the mice had plasma glucose levels ≧350 mgdL^−1, accompanied with polyuria, hyperphagia and decreased body weight. The induction Type 2 DM in the mice was assessed by measuring fasting plasma glucose levels and confirmed when plasma glucose level was ≧150 mgdL^−1 after the 4-week induction. […]
(§2) Western blot analysis was carried out by known methods with a slight modification. […] After centrifuging the homogenates at 10,000 g for 30 minutes, the protein concentrations were determined by using a BCA Protein Assay Kit (Pierce Biotechnology, Rockford, Ill.). […] The membranes were analysed by using the antibodies against phospho-insulin receptor β (IRβ) (Tyr^1345), phospho-Akt (Ser^473), phosphor-AS160 (Thr^642), AS160 (Cell Signaling Technology, Beverly, Mass.), IRβ, Akt, β-Actin (Santa Cruz Biotechnology, Santa Cruz, Calif.), GLUT2 (Abcam, Cambridge, UK), and PEPCK (a gift from Professor D K Granner), respectively. […] The intensity of each band was quantified with ImageQuant.

[1] = test system: human hepatocellular carcinoma cell line Hep3B; assay: Glycogen content assay in Hep3B cells; format: cell-based; conditions: 30 minutes
Method: (§3) The C2C12 skeletal muscle cells were cultured in Dulbecco's modified Eagle's medium (DMEM; Gibco/Invitrogen, Carlsbad, Calif.), and the human hepatocellular carcinoma cell line, Hl-ep3B, was cultured in Roswell Park Memorial Institute medium 1640 (RPMI 1640 medium; Gibco/Invitrogen, Carlsbad, Calif.). Cells were cultured at 37° C. in the humidified incubator supplied with 5% CO2. Culture mediums were supplemented with 4.5 mgmL^−1 glucose, penicillin 100 IUmL^−1, streptomycin 100 μgmL^−1 and 10% fetal bovine serum (Gibco/Invitrogen, Carlsbad, Calif.). Only C2C12 cells were then switched to 2% horse serum for 3 days after reaching the 70% confluence. Myotubes formation was achieved after 4 days of incubation, and the cells were used for subsequent experiments. Culture mediums were replaced by serum free DMEM or RPMI for 24 h before experiments (see e.g., procedure described in Sultan et al., 2006).
(§4) C2C12 and Hep3B cells were treated with 1 nM insulin, 100 μM metformin, and the assigned concentration of borapetoside A for 30 minutes. To develop the insulin resistance state of cells, C2C12 cells were incubated with IL-6 at 20 ngmL^−1 for 1 hour. Later, the cells were treated with 1 nM insulin, 100 μM metformin, and the assigned concentration of borapetoside A for 30 minutes. After the assigned treatment, cells were washed twice with phosphate buffered saline (PBS). Glycogen content was measured as previously described, with some modifications (see e.g., Savage et al., 2008). The protein concentrations of the cell lysates were determined by using Pierce BCA Protein Assay Kit (Thermo-Scientific, Rockford, Ill.). The glycogen content of each sample was normalized by total protein.

IL-6-treated C2C12 cells = assay: Glycogen content assay in IL-6-induced insulin resistant C2C12 cells; format: cell-based; conditions: 30 minutes
Method: as §3, §4

[2] = Intraperitoneal glucose tolerance test; format: in vivo, mice
Method: (§5) After three days of acclimatization, the mice had free access to a standard rodent chow (normal mice), a standard rodent chow after single 250 mgkg^−1 streptozotocin (STZ) intraperitoneal injection (TIDM mice), and a fat-rich chow diet and fructose-sweetened water (T2DM mice) for 4 weeks. The induction of Type 1 DM was assessed and confirmed when the mice had plasma glucose levels ≧350 mgdL^−1, accompanied with polyuria, hyperphagia and decreased body weight. The induction Type 2 DM in the mice was assessed by measuring fasting plasma glucose levels and confirmed when plasma glucose level was ≧150 mgdL^−1 after the 4-week induction. The animals were assigned randomly into three groups, with seven animals in each group. In group I, the mice were treated with vehicle, 2% DMSO in normal saline, as the negative control. In group II, the mice were intraperitoneally treated with borapetoside A (0.1-10 mgkg^−1). In […], the mice received intraperitoneally metformin (300 mgkg^−1; Sigma Chemical Co., St. Louis, Mo., U.S.A.) or insulin (0.5 IUkg^−1; Insulin Actrapid® HM; Novo Nordisk, Denmark). In the acute study, mice under anesthesia received a single intraperitoneal administration of borapetoside A, negative control, or positive control. In the subacute study, mice received intraperitoneal administrations of borapetoside A, vehicle, or insulin twice a day for seven days.
(§6) Blood samples were collected from the orbital vascular plexus of the mice under anesthesia. Blood samples were then centrifuged at 13000 rpm for 5 min, and the plasma samples were collected and kept on ice prior to the assay. The plasma glucose concentration was measured by Glucose Kit Reagent (Biosystems S.A., Barcelona, Spain) following the manufacturer's instructions, and the insulin levels were estimated using mouse insulin ELISA kit (Mercodia AB, Uppsala, Sweden).
The mice were maintained under anesthesia throughout the procedure. Glucose (2.0 gkg^−1) was administered intraperitoneally. Blood samples were collected from the orbital vascular plexus at 0, 30, 60, 120 min. The concentrations of the plasma glucose were measured, and the values of AUC were calculated accordingly.

[3] = test system: phospho-insulin receptor β (IRβ) (Tyr^1345); assay: Western blot of liver, phospho-insulin receptor; format: in vivo; conditions: mice with type 1 DM, 10 mgkg^−1 i.p. twice a day for 7 days
Method: as §1, §2

[4] = test system: C2C12 skeletal muscle cells; assay: Glycogen content assay in differentiated C2C12 myotubes; format: cell-based; conditions: 30 minutes
Method: as §3, §4

[5] = Plasma glucose after single intraperitoneal injection in mice; format: in vivo; conditions: 60 min; for dose giving significant decrease of plasma glucose level: single i.p. dose; for plasma glucose level: 0.1-10 mgkg^−1 i.p., dose-dependent
Method: The 4-week-old male ICR mice were purchased from the Animal Center of the College of Medicine, National Taiwan University (Taipei, Taiwan) with delicate humane care. This animal study was conducted by following the University ethical guidelines and the ‘Guide for the Care and Use of Laboratory Animals’ published by the US National Institutes of Health (NIH publication no. 85-23, revised 1996). The animal experiments were approved by the Institutional Animal Care and Use Committee (IACUC) of the National Taiwan University (IACUC No. 20110073). Animals were housed in a room at the constant temperature, 22±1° C., with 12 hours light and dark cycles.
as §5, §6

In the case of C[C@@]12C[C@@H](c3ccoc3)OC(=O)[C@@H]1C[C@@H]1OC(=O)[C@@]3(O)[C@@H](O[C@@H]4O[C@H](CO)[C@@H](O)[C@H](O)[C@H]4O)CC[C@@H]2[C@@]13C [borapetoside A], the “phosphorylated Akt in liver” value (phospho-Akt (Ser^473)) is reported as “increased”, the “fold increase of glycogen content” value ([1]; 10^−5 mol/L) is reported as 1.54±0.11 fold and the “fold increase of glycogen content” value ([1]; 10^−6 mol/L) is reported as 1.39±0.12 fold. The “fold increase of glycogen content” value ([1]; 10^−7 mol/L) was 1.46±0.05 fold, the “fold increase of glycogen content” value (IL-6-treated C2C12 cells; IL-6-treated C2C12, 10^−6 mol/L) was 1.64±0.05 fold and the “fold increase of glycogen content” value (IL-6-treated C2C12 cells; IL-6-treated C2C12, 10^−7 mol/L) was 1.38±0.06 fold. For the same compound, the “fold increase of glycogen content” value (IL-6-treated C2C12 cells; IL-6-treated C2C12, 10^−8 mol/L) was 1.35±0.08 fold, the “increase of plasma glucose level at 30 min” value ([2]; 0.1, 1, and 10 mgkg^−1, compared to the vehicle group, normal and type 2 DM mice) was “significantly suppressed” and the “area under the curve (AUC) of plasma glucose, % of vehicle control” value (from here on “area under the curve … % of vehicle control”) ([2]; normal mice, 0.1 mgkg^−1) was 78.8±3.0%. For the same compound, the “area under the curve … % of vehicle control” value ([2]; normal mice, 1 mgkg^−1) was 69.9±7.1%, the “area under the curve … % of vehicle control” value ([2]; normal mice, 10 mgkg^−1) was 68.91±3.5% and the “area under the curve … % of vehicle control” value ([2]; type 2 DM bearing mice, 0.1 mgkg^−1) was 74.9±4.5%. The “area under the curve … % of vehicle control” value ([2]; type 2 DM bearing mice, 1 mgkg^−1) was 71.1±3.2%, the “area under the curve … % of vehicle control” value ([2]; type 2 DM bearing mice, 10 mgkg^−1) was 68.9±1.9% and the “phosphorylated IR in liver” value [3] was “increased”. For the same compound, the “fold increase of glycogen” value ([4]; 10^−6 mol/L) was 1.49±0.15 fold, the “fold increase of glycogen” value ([4]; 10^−7 mol/L) was 1.28±0.04 fold and the “fold increase of glycogen” value [4] was 1.53±0.10 fold. The “dose giving significant decrease of plasma glucose level” value ([5]; mice with type 2 DM) was “higher than 0.3 mgkg^−1”, the plasma glucose level ([5]; normal mice) was “lowered” and the “dose giving significant decrease of plasma glucose level” value ([5]; normal mice) was at least 1 mgkg^−1. For the same compound, the plasma glucose level ([5]; type 1 DM mice) was “lowered” and the plasma glucose level ([5]; type 2 DM mice) was “lowered”.
